Measured values published in patent US20230102554A1 (GB002, INC., priority 2019, published 2023).
pIC50: −log10 of the molar value.

Experiments:
[1] = target: T1, Human PDGFRα, cytoplasmic domain (GST-PDGFRα) (Homo sapiens, UniProt P16234); assay: Human PDGFRα biochemical inhibition assay (off-chip Mobility Shift Assay)
T1 construct: made in house

[2] = target: T2, Human PDGFRβ, cytoplasmic domain (GST-PDGFRβ) (Homo sapiens, UniProt P09619); assay: Human PDGFRβ biochemical inhibition assay (off-chip Mobility Shift Assay)
T2 construct: made in house
T2 sequence (P09619 with tags, fused parts or gaps): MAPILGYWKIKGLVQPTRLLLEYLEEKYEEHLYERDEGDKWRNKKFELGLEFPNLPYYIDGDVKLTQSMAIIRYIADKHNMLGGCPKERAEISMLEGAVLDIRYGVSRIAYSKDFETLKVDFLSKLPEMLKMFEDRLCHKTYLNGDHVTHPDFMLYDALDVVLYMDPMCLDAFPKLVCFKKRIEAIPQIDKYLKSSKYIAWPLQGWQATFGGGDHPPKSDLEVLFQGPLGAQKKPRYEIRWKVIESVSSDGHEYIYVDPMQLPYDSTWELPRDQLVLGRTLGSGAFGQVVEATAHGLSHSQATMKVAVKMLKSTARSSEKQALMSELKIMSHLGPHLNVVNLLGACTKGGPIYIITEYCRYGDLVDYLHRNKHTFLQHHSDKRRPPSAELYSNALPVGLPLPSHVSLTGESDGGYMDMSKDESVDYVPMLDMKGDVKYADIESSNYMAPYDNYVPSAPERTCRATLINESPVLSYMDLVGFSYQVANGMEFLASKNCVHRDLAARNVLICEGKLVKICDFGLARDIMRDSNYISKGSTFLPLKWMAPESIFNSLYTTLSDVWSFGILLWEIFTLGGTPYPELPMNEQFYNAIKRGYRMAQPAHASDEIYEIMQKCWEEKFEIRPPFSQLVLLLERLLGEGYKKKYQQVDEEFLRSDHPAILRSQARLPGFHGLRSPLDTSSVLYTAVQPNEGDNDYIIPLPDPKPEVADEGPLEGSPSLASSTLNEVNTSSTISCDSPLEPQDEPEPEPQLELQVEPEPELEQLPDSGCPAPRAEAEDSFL
Summary of the method: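 GST-tagged cytoplasmic domain (aa 557-1106) from baculovirus was incubated 1 h at room temperature with compound, CSKtide, ATP at Km and Mg²⁺ in HEPES buffer, pH 7.5. Phosphorylated and unphosphorylated peptide were separated by off-chip mobility shift, and the product ratio P/(P+S) gave percent inhibition.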

T1 sequence (P16234 550-1089 T674I): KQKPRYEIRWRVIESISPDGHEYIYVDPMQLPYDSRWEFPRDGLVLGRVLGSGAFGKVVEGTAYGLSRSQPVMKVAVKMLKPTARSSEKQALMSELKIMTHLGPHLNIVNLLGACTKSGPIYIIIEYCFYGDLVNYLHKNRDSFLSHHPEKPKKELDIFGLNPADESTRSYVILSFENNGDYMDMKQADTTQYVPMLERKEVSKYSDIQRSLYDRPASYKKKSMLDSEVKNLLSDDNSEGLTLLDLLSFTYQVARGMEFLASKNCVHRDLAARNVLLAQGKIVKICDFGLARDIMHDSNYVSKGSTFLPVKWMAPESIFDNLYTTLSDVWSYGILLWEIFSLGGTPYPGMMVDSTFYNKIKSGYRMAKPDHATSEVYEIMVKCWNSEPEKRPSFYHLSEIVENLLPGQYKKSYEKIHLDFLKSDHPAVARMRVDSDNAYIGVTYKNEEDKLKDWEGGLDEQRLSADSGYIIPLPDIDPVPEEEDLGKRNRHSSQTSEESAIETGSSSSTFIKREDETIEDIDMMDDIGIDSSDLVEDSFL

`CCn1cc2ncc(N[C@@H](C)c3cc(NC(=O)c4ccc(N5CCN(C)CC5)c(Cl)c4)ccc3F)nc2n1` [Compound 413, (S)-3-chloro-N-(3-(1-((2-ethyl-2H-pyrazolo[3,4-b]pyrazin-6-yl)amino)ethyl)-4-fluorophenyl)-4-(4-methylpiperazin-1-yl) benzamide] showed a pIC50 [1] of over 6.52 and a pIC50 [2] of over 6.52.
Work on `CCn1cc2ncc(N[C@@H](C)c3cccc(NC(=O)c4ccc(CN5CC6(COC6)C5)c(C)c4)c3)nc2n1` [Compound 414, (S)-4-((2-oxa-6-azaspiro[3.3]heptan-6-yl)methyl)-N-(3-(1-((2-ethyl-2H-pyrazolo[3,4-b]pyrazin-6-yl)amino)ethyl)phenyl)-3-methylbenzamide] yielded a pIC50 [1] of over 6.52 and a pIC50 [2] of over 6.52.
`CCn1cc2ncc(N[C@@H](C)c3cccc(NC(=O)c4ccc(CN5CC6(COC6)C5)c(Cl)c4)c3)nc2n1` [Compound 415, (S)-4-((2-oxa-6-azaspiro[3.3]heptan-6-yl)methyl)-3-chloro-N-(3-(1-((2-ethyl-2H-pyrazolo[3,4-b]pyrazin-6-yl)amino)ethyl)phenyl)benzamide] showed a pIC50 [1] of over 6.52 and a pIC50 [2] of over 6.52.
Work on `CCn1cc2ncc(N[C@@H](C)c3cccc(NC(=O)c4ccc(CN5CCOCC5)c(Cl)c4)c3)nc2n1` [Compound 416, (S)-3-chloro-N-(3-(1-((2-ethyl-2H-pyrazolo[3,4-b]pyrazin-6-yl)amino)ethyl)phenyl)-4-(morpholinomethyl)benzamide] yielded a pIC50 [1] of over 6.52 and a pIC50 [2] of over 6.52.
Compound `CCn1cc2ncc(N[C@@H](C)c3cccc(NC(=O)c4ccc(CN5CCN(C)CC5)c(Cl)c4)c3)nc2n1` [Compound 417, (S)-3-chloro-N-(3-(1-((2-ethyl-2H-pyrazolo[3,4-b]pyrazin-6-yl)amino)ethyl)phenyl)-4-((4-methylpiperazin-1-yl)methyl) benzamide] has a pIC50 [1] of over 6.52 and a pIC50 [2] of over 6.52.
In the case of `CCn1cc2ncc(N[C@@H](C)c3cccc(NC(=O)c4ccc(CN5CCCC5)c(Cl)c4)c3)nc2n1` [Compound 418, (S)-3-chloro-N-(3-(1-((2-ethyl-2H-pyrazolo[3,4-b]pyrazin-6-yl)amino)ethyl)phenyl)-4-(pyrrolidin-1-ylmethyl) benzamide], the pIC50 [1] was over 6.52 and the pIC50 [2] was over 6.52.
`CCn1cc2ncc(N[C@@H](C)c3cccc(NC(=O)c4cnc(C)c(F)c4)c3)nc2n1` [Compound 419, (S)-N-(3-(1-((2-ethyl-2H-pyrazolo[3,4-b]pyrazin-6-yl)amino)ethyl)phenyl)-5-fluoro-6-methylnicotinamide] showed a pIC50 [1] of over 6.52 and a pIC50 [2] of 6.00 to 6.52.
`CCNc1ncc(C(=O)Nc2cccc([C@H](C)Nc3cnc4cn(CC)nc4n3)c2)cc1Cl` [Compound 420, (S)-5-chloro-N-(3-(1-((2-ethyl-2H-pyrazolo[3,4-b]pyrazin-6-yl)amino)ethyl)phenyl)-6-(ethylamino)nicotinamide] gave a pIC50 [1] of over 6.52 and a pIC50 [2] of over 6.52.
`CCn1cc2ncc(N[C@@H](C)c3cccc(NC(=O)c4cnc(N5CCN(C)CC5)c(Cl)c4)c3)nc2n1` [Compound 421, (S)-5-chloro-N-(3-(1-((2-ethyl-2H-pyrazolo[3,4-b]pyrazin-6-yl)amino)ethyl)phenyl)-6-(4-methylpiperazin-1-yl) nicotinamide] showed a pIC50 [1] of over 6.52 and a pIC50 [2] of over 6.52.
Compound `CCn1cc2ncc(N[C@@H](C)c3cccc(NC(=O)c4cnc(N5CCN(C)CC5)c(C(F)(F)F)c4)c3)nc2n1` [Compound 422, (S)-N-(3-(1-((2-ethyl-2H-pyrazolo[3,4-b]pyrazin-6-yl)amino)ethyl)phenyl)-6-(4-methylpiperazin-1-yl)-5-(trifluoromethyl)nicotinamide] has a pIC50 [1] of over 6.52 and a pIC50 [2] of over 6.52.
Compound `CCn1cc2ncc(N[C@@H](C)c3cccc(NC(=O)c4ccc(CN5CCN(C)CC5)c(C(F)(F)F)c4)c3)nc2n1` [Compound 423, (S)-N-(3-(1-((2-ethyl-2H-pyrazolo[3,4-b]pyrazin-6-yl)amino)ethyl)phenyl)-4-((4-methylpiperazin-1-yl)methyl)-3-(trifluoromethyl)benzamide] has a pIC50 [1] of over 6.52 and a pIC50 [2] of over 6.52.
In the case of `CCn1cc2ncc(N[C@@H](C)c3cccc(NC(=O)c4ccc(CN5CCOCC5)c(C(F)(F)F)c4)c3)nc2n1` [Compound 424, (S)-N-(3-(1-((2-ethyl-2H-pyrazolo[3,4-b]pyrazin-6-yl)amino)ethyl)phenyl)-4-(morpholinomethyl)-3-(trifluoromethyl)benzamide], the pIC50 [1] was over 6.52 and the pIC50 [2] was over 6.52.
For `CCn1cc2ncc(N[C@@H](C)c3cccc(NC(=O)c4ccc(CN5CCCC5)c(C(F)(F)F)c4)c3)nc2n1` [Compound 425, (S)-N-(3-(1-((2-ethyl-2H-pyrazolo[3,4-b]pyrazin-6-yl)amino)ethyl)phenyl)-4-(pyrrolidin-1-ylmethyl)-3-(trifluoromethyl)benzamide], the pIC50 [1] was over 6.52 and the pIC50 [2] was over 6.52.
`CCn1cc2ncc(N[C@@H](C)c3cc(NC(=O)c4ccc(CN5CCCC5)c(Cl)c4)ccc3F)nc2n1` [Compound 426, (S)-3-chloro-N-(3-(1-((2-ethyl-2H-pyrazolo[3,4-b]pyrazin-6-yl)amino)ethyl)-4-fluorophenyl)-4-(pyrrolidin-1-ylmethyl) benzamide] was tested, and the pIC50 [1] was over 6.52 and the pIC50 [2] was over 6.52.
For `CCn1cc2ncc(N[C@@H](C)c3cc(NC(=O)c4ccc(CN5CCOCC5)c(Cl)c4)ccc3F)nc2n1` [Compound 427, (S)-3-chloro-N-(3-(1-((2-ethyl-2H-pyrazolo[3,4-b]pyrazin-6-yl)amino)ethyl)-4-fluorophenyl)-4-(morpholinomethyl)benzamide], the pIC50 [1] was over 6.52 and the pIC50 [2] was over 6.52.
`CCn1cc2ncc(N[C@@H](C)c3cc(NC(=O)c4ccc(CN5CCOCC5)c(C(F)(F)F)c4)ccc3F)nc2n1` [Compound 428, (S)-N-(3-(1-((2-ethyl-2H-pyrazolo[3,4-b]pyrazin-6-yl)amino)ethyl)-4-fluorophenyl)-4-(morpholinomethyl)-3-(trifluoromethyl)benzamide] showed a pIC50 [1] of over 6.52 and a pIC50 [2] of over 6.52.
Work on `CCn1cc2ncc(N[C@@H](C)c3cc(NC(=O)c4ccc(CN5CCN(C)CC5)c(Cl)c4)ccc3F)nc2n1` [Compound 429, (S)-3-chloro-N-(3-(1-((2-ethyl-2H-pyrazolo[3,4-b]pyrazin-6-yl)amino)ethyl)-4-fluorophenyl)-4-((4-methylpiperazin-1-yl)methyl)benzamide] yielded a pIC50 [1] of over 6.52 and a pIC50 [2] of over 6.52.
In the case of `CCn1cc2ncc(N[C@@H](C)c3cc(NC(=O)c4ccc(OC5CCN(C)CC5)c(Cl)c4)ccc3F)nc2n1` [Compound 430, (S)-3-chloro-N-(3-(1-((2-ethyl-2H-pyrazolo[3,4-b]pyrazin-6-yl)amino)ethyl)-4-fluorophenyl)-4-((1-methylpiperidin-4-yl)oxy)benzamide], the pIC50 [1] was over 6.52 and the pIC50 [2] was over 6.52.
`CCn1cc2ncc(N[C@@H](C)c3cc(NC(=O)c4ccc(OC5CCN(C)CC5)c(C(F)(F)F)c4)ccc3F)nc2n1` [Compound 431, (S)-N-(3-(1-((2-ethyl-2H-pyrazolo[3,4-b]pyrazin-6-yl)amino)ethyl)-4-fluorophenyl)-4-((1-methylpiperidin-4-yl)oxy)-3-(trifluoromethyl)benzamide] was tested, and the pIC50 [1] was over 6.52 and the pIC50 [2] was over 6.52.
`CCn1cc2ncc(N[C@@H](C)c3cc(NC(=O)c4cnc(N5CCN(C)CC5)c(C)c4)ccc3F)nc2n1` [Compound 432, (S)-N-(3-(1-((2-ethyl-2H-pyrazolo[3,4-b]pyrazin-6-yl)amino)ethyl)-4-fluorophenyl)-5-methyl-6-(4-methylpiperazin-1-yl)nicotinamide] was tested, and the pIC50 [1] was over 6.52 and the pIC50 [2] was over 6.52.
For `CCn1cc2ncc(N[C@@H](C)c3cc(NC(=O)c4ccc(N5CCN(C)CC5)c(C(F)(F)F)c4)ccc3F)nc2n1` [Compound 433, (S)-N-(3-(1-((2-ethyl-2H-pyrazolo[3,4-b]pyrazin-6-yl)amino)ethyl)-4-fluorophenyl)-4-(4-methylpiperazin-1-yl)-3-(trifluoromethyl)benzamide], the pIC50 [1] was over 6.52 and the pIC50 [2] was over 6.52.
In the case of `Cc1cncc(C(=O)Nc2cccc([C@H](C)Nc3cnc4cn(-c5ccccc5)nc4n3)c2)c1` [Compound 434, (S)-5-methyl-N-(3-(1-((2-phenyl-2H-pyrazolo[3,4-b]pyrazin-6-yl)amino)ethyl)phenyl)nicotinamide], the pIC50 [1] was over 6.52 and the pIC50 [2] was over 6.52.
With `CCn1cc2ncc(N[C@@H](C)c3cccc(NC(=O)c4ccc(Cn5ccnc5)c(C)c4)c3)nc2n1` [Compound 435, (S)-4-((1H-imidazol-1-yl)methyl)-N-(3-(1-((2-ethyl-2H-pyrazolo[3,4-b]pyrazin-6-yl)amino)ethyl)phenyl)-3-methylbenzamide] the pIC50 [1] was over 6.52 and the pIC50 [2] was over 6.52.
Compound `CCn1cc2ncc(N[C@@H](C)c3cccc(NC(=O)c4ccc(N5CCN(C)CC5)c(C(F)(F)F)c4)c3)nc2n1` [Compound 436, (S)-N-(3-(1-((2-ethyl-2H-pyrazolo[3,4-b]pyrazin-6-yl)amino)ethyl)phenyl)-4-(4-methylpiperazin-1-yl)-3-(trifluoromethyl)benzamide] has a pIC50 [1] of over 6.52 and a pIC50 [2] of over 6.52.
`CCn1cc2ncc(N[C@@H](C)c3cccc(NC(=O)c4ccc(OC(F)(F)F)c(Cl)c4)c3)nc2n1` [Compound 437, (S)-3-chloro-N-(3-(1-((2-ethyl-2H-pyrazolo[3,4-b]pyrazin-6-yl)amino)ethyl)phenyl)-4-(trifluoromethoxy)benzamide] was tested, and the pIC50 [1] was over 6.52 and the pIC50 [2] was over 6.52.
In the case of `CCn1cc2ncc(N[C@@H](C)c3cccc(NC(=O)c4ccc(C(F)(F)F)c(Cl)c4)c3)nc2n1` [Compound 438, (S)-3-chloro-N-(3-(1-((2-ethyl-2H-pyrazolo[3,4-b]pyrazin-6-yl)amino)ethyl)phenyl)-4-(trifluoromethyl)benzamide], the pIC50 [1] was over 6.52 and the pIC50 [2] was over 6.52.
`CCn1cc2ncc(N[C@@H](C)c3cccc(NC(=O)c4ccc(C(F)(F)F)c(C)c4)c3)nc2n1` [Compound 439, (S)-N-(3-(1-((2-ethyl-2H-pyrazolo[3,4-b]pyrazin-6-yl)amino)ethyl)phenyl)-3-methyl-4-(trifluoromethyl)benzamide] was tested, and the pIC50 [1] was over 6.52 and the pIC50 [2] was over 6.52.
